Measured values from ChEMBL document CHEMBL4507274 (2021).

Key:
[1] = target: T1, Cytoplasmic tyrosine-protein kinase BMX (Homo sapiens) (UniProt P51813); experiment: Bmx (h) Upstate kinase activity assay; conditions: Compound concentration 10.0 uM
T1 sequence (whole entry): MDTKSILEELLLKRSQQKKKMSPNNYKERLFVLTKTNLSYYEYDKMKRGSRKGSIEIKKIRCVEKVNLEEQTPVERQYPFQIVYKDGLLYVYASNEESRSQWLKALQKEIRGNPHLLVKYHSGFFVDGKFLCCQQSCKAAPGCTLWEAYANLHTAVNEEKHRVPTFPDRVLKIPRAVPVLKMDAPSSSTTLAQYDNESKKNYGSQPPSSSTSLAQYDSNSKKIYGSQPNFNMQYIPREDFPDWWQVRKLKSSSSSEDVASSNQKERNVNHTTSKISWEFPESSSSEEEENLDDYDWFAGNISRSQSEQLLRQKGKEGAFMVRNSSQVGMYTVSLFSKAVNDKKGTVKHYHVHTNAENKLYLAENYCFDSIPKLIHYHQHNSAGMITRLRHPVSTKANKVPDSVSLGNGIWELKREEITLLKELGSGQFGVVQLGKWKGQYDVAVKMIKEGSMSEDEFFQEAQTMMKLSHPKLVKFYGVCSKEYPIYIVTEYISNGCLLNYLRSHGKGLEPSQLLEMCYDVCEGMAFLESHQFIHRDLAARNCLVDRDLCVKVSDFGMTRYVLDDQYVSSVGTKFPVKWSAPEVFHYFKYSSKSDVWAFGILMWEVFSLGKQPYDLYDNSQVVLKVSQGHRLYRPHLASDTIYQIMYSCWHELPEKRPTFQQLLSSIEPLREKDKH

[2] = target: Casein kinase II subunit alpha (Homo sapiens) (UniProt P68400); experiment: CK2 (h) Upstate kinase activity assay; conditions: Compound concentration 10.0 uM
[3] = target: Mitogen-activated protein kinase 9 (Homo sapiens) (UniProt P45984); experiment: JNK2alpha2 (h) Upstate kinase activity assay; conditions: Compound concentration 10.0 uM
[4] = target: Tyrosine-protein kinase Lck (Homo sapiens) (UniProt P06239); experiment: Lck (h) Upstate kinase activity assay; conditions: Compound concentration 10.0 uM
Chain of Tyrosine-protein kinase Lck (Homo sapiens) (P06239 2-509 limits assumed): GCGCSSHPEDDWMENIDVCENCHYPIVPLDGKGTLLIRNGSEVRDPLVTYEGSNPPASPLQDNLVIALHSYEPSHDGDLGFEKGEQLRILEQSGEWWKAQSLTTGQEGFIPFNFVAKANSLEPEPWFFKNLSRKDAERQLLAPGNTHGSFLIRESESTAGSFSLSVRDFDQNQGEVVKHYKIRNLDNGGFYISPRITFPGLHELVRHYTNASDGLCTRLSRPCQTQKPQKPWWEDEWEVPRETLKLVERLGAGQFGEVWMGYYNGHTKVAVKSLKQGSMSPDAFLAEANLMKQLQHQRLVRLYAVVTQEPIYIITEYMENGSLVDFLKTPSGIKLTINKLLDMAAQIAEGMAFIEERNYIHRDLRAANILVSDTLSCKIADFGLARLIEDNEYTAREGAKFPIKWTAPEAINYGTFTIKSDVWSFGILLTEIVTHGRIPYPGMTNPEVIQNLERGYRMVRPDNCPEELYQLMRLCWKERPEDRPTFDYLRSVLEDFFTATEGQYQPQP

[5] = target: Hepatocyte growth factor receptor (Homo sapiens) (UniProt P08581); experiment: Met (h) Upstate kinase activity assay; conditions: Compound concentration 10.0 uM
Chain of Hepatocyte growth factor receptor (Homo sapiens) (P08581 whole entry): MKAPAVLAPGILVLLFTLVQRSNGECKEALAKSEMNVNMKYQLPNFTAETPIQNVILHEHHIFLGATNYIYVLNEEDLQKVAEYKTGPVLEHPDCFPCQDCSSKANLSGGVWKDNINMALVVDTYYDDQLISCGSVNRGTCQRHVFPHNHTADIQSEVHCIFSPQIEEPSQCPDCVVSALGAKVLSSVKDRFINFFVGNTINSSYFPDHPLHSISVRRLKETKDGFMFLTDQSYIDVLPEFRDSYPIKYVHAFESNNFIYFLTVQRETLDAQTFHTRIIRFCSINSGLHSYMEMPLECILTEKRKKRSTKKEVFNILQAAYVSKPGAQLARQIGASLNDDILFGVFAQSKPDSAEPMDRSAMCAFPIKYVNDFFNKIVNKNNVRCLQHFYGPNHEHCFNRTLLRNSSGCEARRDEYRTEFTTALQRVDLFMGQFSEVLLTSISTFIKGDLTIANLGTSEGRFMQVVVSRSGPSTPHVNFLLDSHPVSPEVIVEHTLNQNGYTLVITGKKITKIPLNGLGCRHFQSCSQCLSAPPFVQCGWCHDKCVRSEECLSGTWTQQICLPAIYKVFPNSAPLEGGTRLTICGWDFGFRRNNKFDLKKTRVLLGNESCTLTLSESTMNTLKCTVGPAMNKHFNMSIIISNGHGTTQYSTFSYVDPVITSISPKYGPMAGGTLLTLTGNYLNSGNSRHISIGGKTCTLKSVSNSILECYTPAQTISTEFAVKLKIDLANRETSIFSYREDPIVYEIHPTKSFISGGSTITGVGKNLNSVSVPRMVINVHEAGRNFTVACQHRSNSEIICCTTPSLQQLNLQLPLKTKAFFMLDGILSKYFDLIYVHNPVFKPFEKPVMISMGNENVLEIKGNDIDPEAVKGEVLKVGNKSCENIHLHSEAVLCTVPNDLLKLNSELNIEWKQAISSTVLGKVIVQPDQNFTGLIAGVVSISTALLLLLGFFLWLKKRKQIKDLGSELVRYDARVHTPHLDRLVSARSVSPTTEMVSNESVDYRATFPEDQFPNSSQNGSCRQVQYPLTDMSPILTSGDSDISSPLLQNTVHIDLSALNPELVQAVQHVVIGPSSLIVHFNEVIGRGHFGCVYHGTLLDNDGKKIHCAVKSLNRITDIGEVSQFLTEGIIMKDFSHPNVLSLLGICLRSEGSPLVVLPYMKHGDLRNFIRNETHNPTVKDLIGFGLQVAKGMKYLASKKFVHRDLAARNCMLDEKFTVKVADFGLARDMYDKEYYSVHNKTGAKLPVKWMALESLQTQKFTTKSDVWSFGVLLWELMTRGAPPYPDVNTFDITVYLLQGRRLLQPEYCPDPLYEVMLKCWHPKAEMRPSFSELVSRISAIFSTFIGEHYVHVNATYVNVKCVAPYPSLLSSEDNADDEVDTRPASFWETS

[6] = target: T2, Serine/threonine-protein kinase 3 (Homo sapiens) (UniProt Q13188); experiment: MST2 (h) Upstate kinase activity assay; conditions: Compound concentration 10.0 uM
T2 sequence (whole entry): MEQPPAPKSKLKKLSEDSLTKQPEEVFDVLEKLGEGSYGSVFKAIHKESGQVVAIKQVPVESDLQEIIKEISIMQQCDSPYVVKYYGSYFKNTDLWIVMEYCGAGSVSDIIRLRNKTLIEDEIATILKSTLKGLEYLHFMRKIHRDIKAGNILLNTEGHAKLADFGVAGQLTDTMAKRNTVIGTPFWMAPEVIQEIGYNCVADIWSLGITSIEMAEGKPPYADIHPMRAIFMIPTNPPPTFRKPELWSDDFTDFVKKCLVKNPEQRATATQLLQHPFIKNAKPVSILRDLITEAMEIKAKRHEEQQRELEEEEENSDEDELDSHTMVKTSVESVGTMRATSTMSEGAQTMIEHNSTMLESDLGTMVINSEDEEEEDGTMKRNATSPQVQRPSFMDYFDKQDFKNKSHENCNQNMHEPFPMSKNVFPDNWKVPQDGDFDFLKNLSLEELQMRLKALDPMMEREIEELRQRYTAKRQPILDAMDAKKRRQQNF

[7] = target: Protein kinase C eta type (Homo sapiens) (UniProt P24723); experiment: PKCeta (h) Upstate kinase activity assay; conditions: Compound concentration 10.0 uM
[8] = target: Ribosomal protein S6 kinase alpha-3 (Homo sapiens) (UniProt P51812); experiment: Rsk2 (h) Upstate kinase activity assay; conditions: Compound concentration 10.0 uM
Chain of Ribosomal protein S6 kinase alpha-3 (Homo sapiens) (P51812 whole entry): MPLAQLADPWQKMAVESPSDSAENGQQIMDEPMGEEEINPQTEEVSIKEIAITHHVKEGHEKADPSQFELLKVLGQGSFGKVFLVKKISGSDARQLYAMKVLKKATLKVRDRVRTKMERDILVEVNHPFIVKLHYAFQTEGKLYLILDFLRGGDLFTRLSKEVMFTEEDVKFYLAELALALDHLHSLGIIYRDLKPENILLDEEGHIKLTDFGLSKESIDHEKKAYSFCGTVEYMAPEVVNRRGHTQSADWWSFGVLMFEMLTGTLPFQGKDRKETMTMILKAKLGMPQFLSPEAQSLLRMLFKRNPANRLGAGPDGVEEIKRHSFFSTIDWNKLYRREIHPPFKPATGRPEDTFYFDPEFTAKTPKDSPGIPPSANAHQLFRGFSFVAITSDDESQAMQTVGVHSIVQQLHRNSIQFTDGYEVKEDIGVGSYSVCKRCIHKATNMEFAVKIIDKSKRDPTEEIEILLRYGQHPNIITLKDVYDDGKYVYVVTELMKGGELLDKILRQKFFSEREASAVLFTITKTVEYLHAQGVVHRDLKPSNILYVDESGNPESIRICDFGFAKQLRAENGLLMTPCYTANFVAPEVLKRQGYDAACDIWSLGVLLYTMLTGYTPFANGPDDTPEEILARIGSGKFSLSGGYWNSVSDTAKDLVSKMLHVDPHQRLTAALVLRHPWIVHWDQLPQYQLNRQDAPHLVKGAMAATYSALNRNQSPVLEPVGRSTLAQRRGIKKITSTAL

[9] = target: T3, Tyrosine-protein kinase ZAP-70 (Homo sapiens) (UniProt P43403); experiment: ZAP-70 (h) Upstate kinase activity assay; conditions: Compound concentration 10.0 uM
T3 sequence (whole entry): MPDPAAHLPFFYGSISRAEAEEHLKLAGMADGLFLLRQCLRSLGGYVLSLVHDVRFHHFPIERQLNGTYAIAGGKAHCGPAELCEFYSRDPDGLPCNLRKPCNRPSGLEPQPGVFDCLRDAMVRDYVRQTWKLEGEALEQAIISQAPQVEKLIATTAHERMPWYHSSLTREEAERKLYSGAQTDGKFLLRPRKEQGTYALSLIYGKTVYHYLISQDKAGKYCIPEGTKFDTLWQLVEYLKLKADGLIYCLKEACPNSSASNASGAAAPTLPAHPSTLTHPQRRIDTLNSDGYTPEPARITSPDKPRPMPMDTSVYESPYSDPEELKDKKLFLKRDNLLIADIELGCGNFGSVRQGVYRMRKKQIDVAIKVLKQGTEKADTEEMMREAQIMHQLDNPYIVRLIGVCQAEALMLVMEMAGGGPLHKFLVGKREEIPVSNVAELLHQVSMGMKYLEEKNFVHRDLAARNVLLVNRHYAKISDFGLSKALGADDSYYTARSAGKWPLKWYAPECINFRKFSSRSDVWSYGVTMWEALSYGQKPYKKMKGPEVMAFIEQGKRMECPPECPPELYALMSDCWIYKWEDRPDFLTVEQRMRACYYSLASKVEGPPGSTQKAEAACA

[10] = test system: A549; experiment: Lung A549 cell line MDS Pharma Services Proliferation Assay; assay type: functional, cell-based, Homo sapiens
[11] = test system: KATO III stomach cancer cell line; experiment: Stomach KATO III cell line MDS Pharma Services Proliferation Assay; assay type: functional, cell-based, Homo sapiens
[12] = target: GABA-A receptor; anion channel (Rattus norvegicus) (UniProt O09028+P15431+P18506+P18508+P19969+P20236+P23574+P23576+P28471+P28473+P30191+P62813+P63079+P63138+Q91ZM7+Q9ES14); conditions: Compound concentration 10.0 uM
[13] = target: Rho-associated protein kinase 2 (Homo sapiens, UniProt O75116); conditions: Compound concentration 10.0 uM
Chain of Rho-associated protein kinase 2 (O75116 whole entry, looked up): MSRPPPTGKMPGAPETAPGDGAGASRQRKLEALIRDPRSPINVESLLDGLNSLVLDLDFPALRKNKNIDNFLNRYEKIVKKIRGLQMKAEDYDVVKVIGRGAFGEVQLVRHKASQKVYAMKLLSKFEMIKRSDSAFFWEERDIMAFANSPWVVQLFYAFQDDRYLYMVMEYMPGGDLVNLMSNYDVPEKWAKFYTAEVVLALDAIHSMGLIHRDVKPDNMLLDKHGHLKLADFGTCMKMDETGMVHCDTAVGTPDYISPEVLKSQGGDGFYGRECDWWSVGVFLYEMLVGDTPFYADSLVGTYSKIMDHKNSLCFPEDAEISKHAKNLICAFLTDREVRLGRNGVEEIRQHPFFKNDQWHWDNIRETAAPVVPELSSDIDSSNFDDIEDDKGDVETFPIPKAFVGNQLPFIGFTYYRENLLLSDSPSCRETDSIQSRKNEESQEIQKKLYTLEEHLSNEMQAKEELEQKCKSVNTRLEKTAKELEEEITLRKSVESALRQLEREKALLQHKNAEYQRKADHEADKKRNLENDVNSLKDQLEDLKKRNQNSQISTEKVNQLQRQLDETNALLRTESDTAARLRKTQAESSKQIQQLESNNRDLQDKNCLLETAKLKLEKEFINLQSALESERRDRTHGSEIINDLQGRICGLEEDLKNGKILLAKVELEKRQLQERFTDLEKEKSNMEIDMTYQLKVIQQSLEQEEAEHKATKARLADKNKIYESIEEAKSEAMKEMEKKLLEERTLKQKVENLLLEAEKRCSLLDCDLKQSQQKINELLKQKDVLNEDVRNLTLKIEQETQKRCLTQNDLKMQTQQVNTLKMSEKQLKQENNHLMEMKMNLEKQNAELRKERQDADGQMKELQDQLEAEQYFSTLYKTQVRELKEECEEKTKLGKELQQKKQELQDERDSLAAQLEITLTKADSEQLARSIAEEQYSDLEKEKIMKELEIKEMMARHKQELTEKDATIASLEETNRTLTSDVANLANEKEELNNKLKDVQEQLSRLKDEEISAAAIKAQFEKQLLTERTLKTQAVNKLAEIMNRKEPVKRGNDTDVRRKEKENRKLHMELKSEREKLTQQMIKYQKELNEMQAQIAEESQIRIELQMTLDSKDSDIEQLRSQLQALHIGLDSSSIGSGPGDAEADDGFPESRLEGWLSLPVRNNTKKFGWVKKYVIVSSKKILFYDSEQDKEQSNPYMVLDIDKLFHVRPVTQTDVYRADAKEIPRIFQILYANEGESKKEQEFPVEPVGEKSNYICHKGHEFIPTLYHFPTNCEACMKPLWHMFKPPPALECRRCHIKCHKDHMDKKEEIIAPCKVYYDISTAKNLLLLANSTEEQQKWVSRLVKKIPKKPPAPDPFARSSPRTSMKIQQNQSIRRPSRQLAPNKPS

[14] = test system: Epidermal growth factor receptor (Homo sapiens), P00533 [UNDEFINED MUTATION]; conditions: Compound concentration 100.0 nM
[15] = test system: Epidermal growth factor receptor (Homo sapiens), P00533 [L861Q]; conditions: Compound concentration 100.0 nM
[16] = test system: Epidermal growth factor receptor (Homo sapiens), P00533 [T790M]; conditions: Compound concentration 100.0 nM
[17] = target: Mitogen-activated protein kinase kinase kinase 20 (Homo sapiens) (UniProt Q9NYL2); conditions: Compound concentration 100.0 nM
Chain of Mitogen-activated protein kinase kinase kinase 20 (Homo sapiens) (Q9NYL2 2-800 limits assumed): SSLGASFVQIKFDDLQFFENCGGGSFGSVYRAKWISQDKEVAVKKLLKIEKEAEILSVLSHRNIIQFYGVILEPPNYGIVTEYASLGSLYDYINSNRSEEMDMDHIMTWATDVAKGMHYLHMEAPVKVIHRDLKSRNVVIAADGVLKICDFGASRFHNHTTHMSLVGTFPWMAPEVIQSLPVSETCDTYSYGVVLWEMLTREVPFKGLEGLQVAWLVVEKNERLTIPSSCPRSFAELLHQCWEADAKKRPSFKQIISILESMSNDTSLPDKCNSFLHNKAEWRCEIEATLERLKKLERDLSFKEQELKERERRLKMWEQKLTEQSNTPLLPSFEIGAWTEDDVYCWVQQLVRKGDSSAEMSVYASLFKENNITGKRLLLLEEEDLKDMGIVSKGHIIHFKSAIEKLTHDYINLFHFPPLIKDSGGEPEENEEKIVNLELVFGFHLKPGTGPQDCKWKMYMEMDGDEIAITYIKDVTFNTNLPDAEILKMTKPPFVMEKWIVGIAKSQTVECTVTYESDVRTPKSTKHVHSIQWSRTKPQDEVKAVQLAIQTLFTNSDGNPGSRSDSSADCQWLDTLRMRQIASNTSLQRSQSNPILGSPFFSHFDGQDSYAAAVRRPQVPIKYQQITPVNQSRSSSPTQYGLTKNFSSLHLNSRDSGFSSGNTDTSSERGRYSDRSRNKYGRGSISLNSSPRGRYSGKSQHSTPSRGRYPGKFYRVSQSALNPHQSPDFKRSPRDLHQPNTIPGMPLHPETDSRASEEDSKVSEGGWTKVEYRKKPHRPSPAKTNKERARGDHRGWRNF

## Cc1c[nH]c2nccc(Oc3c(F)cc(Nc4cc(Cl)nc(N)n4)cc3F)c12 [BAY-549]
[1]
  inhibition: 18%
[2]
  inhibition: 6%
[3]
  inhibition: 16%
[4]
  inhibition: 50%
[5]
  inhibition: 82%
[6]
  inhibition: 59%
[7]
  inhibition: 24%
[8]
  inhibition: 61%
[9]
  inhibition: -8%
[10]; Homo sapiens, A549
  IC50: 1.5 µM
  TGI: 25 µM
[10]; Homo sapiens, A549, read-out: LC50 (the source's name)
  CC50: > 100 µM
[10]; ± SEM 2 % growth
  Mean % growth (n = 2) for 1.0 µM probe concentration: 42%
  Mean % growth (n = 2) for 10.0 µM probe concentration: 7%
[10]; ± SEM 3 % growth
  Mean % growth (n = 2) for 100.0 µM probe concentration: -15%
[10]; ± SEM 4 % growth
  Mean % growth (n = 2) for 0.01 µM probe concentration: 103%
  Mean % growth (n = 2) for 0.1 µM probe concentration: 97%
[11]; Homo sapiens, KATO III
  IC50: 3.2 µM
  TGI: > 100 µM
[11]; Homo sapiens, KATO III, read-out: LC50 (the source's name)
  CC50: > 100 µM
[11]; ± SEM 7 % growth
  Mean % growth (n = 2) for 0.01 µM probe concentration: 98%
  Mean % growth (n = 2) for 10.0 µM probe concentration: 27%
  Mean % growth (n = 2) for 100.0 µM probe concentration: 19%
[11]; ± SEM 8 % growth
  Mean % growth (n = 2) for 1.0 µM probe concentration: 66%
[11]; ± SEM 11 % growth
  Mean % growth (n = 2) for 0.1 µM probe concentration: 99%
[12]
  inhibition: -8.68%
[13]
  inhibition: 100%

## Cn1cc(Cl)c2c(Oc3c(F)cc(Nc4cc(Cl)nc(N)n4)cc3F)ccnc21 [BAY-4900]
[14]
  residual activity: 73%
[15]
  residual activity: 100%
[16]
  residual activity: 88%
[17]
  residual activity: 97%
